Measured values taken from patent publication US9688653B2, “Ethoxyphenyl thienyl compounds and methods for the treatment of bacterial infections” (Duke University, priority 2013, dated 2017).
Where “and” joins values, the source holds several entries; their conditions need not be identical. Identical values can stand only once. Like-named read-outs stand apart in the source and are kept apart here.

Columns and labels:
panel of 68 receptors [1] = molecular target: panel of 68 receptors (Homo sapiens, UniProt P08588); details: Adrenergic β1, hum, 10 μM
Sequence of panel of 68 receptors (Homo sapiens, UniProt P08588) (P08588 whole entry): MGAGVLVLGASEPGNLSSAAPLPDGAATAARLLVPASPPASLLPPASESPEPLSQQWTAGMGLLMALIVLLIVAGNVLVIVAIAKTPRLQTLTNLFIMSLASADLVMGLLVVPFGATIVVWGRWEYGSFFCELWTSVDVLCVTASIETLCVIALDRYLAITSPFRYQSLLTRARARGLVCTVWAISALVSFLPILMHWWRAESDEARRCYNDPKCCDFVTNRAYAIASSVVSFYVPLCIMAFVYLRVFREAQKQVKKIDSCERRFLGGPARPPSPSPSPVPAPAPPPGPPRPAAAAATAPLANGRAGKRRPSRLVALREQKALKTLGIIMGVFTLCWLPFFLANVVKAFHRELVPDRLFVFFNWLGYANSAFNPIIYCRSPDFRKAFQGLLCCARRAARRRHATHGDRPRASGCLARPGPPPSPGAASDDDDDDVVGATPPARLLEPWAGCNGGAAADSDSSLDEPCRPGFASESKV

panel of 68 receptors [2] = molecular target: panel of 68 receptors (Homo sapiens, UniProt Q9Y5N1); details: Histamine H3, hum, 10 μM
Sequence of panel of 68 receptors (Homo sapiens, UniProt Q9Y5N1) (Q9Y5N1 whole entry): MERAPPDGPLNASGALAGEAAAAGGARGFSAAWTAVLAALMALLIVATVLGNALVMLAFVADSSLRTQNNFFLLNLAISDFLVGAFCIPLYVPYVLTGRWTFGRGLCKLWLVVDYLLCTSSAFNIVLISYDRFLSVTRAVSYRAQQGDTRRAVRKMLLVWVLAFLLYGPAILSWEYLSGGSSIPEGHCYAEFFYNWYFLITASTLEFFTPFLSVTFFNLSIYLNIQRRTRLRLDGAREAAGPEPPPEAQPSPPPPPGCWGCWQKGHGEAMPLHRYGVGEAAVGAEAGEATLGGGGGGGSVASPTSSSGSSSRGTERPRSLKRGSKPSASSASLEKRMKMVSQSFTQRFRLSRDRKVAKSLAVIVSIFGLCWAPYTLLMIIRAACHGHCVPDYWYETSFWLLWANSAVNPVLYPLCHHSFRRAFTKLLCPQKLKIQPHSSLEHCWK

panel of 68 receptors [3] = molecular target: panel of 68 receptors (Mus musculus, UniProt P13504); details: Interleukin IL-1, mouse, 10 μM
Sequence of panel of 68 receptors (Mus musculus, UniProt P13504) (P13504 20-576): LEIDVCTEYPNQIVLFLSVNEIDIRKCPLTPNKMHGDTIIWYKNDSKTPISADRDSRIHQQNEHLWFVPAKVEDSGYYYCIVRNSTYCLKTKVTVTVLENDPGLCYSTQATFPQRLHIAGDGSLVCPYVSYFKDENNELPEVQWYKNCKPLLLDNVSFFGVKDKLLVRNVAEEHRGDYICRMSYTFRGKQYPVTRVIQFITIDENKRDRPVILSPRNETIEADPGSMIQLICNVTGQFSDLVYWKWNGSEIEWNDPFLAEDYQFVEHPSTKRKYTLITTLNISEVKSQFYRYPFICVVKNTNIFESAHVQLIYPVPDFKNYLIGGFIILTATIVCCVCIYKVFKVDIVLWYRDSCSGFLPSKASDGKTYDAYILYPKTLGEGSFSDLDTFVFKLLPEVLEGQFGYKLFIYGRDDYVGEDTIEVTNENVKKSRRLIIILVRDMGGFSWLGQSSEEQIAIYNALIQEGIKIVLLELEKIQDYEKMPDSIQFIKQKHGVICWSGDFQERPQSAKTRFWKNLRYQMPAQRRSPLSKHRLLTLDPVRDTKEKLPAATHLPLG

[4] = Cytotoxicity counterscreen, CellTiter Glo, 72 hr; assay type: cell-based, human; details: human, bladder carcinoma 5637 cells (ATCC HTB-9); for CC50 at 72 h: read-out: Mammalian cell toxicity CC50
In short: (§1)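 5637 bladder carcinoma cells were exposed to a 10-point compound series (300-0.58 μM, 0.5% DMSO) for 72 h. Viability was measured by CellTiter-Glo luminescence, and TC50 (CC50) was derived, with Hyamine as cytotoxic control.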

[5] = tested on: Bladder carcinoma 5637 cells; test: Cytotoxicity counterscreen, CellTiter Glo, 72 hr; assay type: cell-based, human; details: bladder carcinoma 5637 cells
In short: as §1

Plasma stability, human = assay type: in vitro ADME; details: 1:1 Plasma:PBS, 37° C.
Plasma stability, mouse = assay type: in vitro ADME; details: 1:1 Plasma:PBS, 37° C.
in vitro = assay type: cell-based; details: human
[6] = tested on: E. coli strains 536 (K15 serotype), CFT073 (K2 serotype), DS17 (K5 serotype), UTI89 (K1 serotype); test: Visualization of isolated capsule by Alcian blue staining; assay type: cell-based, Escherichia coli; details: strains 536, CFT073, DS17, UTI89; DU011 200 μM
Description: Visualization of capsule using Alcian blue staining. Overnight cultures of clinical E. coli strains were diluted 1:100 in the presence of 1% DMSO or 100 μM DU011. Cultures were grown for ˜6 hrs (OD600=1.2) at 37° C. Samples were centrifuged at 13,200 RPM for 5 min. The medium was removed and the cells were resuspended in 500 μL of Tris-Acetate (pH 5) and shaken for 1 hr at 37° C. Samples were re-centrifuged, and the supernatant was concentrated ˜100 fold in Amicon 3K microconcentrators.
A major consideration was whether the inhibitors of K1 encapsulation were also able to inhibit the production of other important E. coli Group 2 capsule types. […] Capsular material was isolated from strains 536 (K15 serotype), CFT073 (K2 serotype) and DS17 (K5 serotype), and UTI89 (K1 serotype) in the presence and absence of capsule inhibitors. Capsule was isolated from the same amount of bacteria after growth in vehicle or with inhibitor DU011 (200 μM). Isolated material was separated on a polyacrylamide gel and stained with the cationic dye alcian blue.

CCOc1ccc(-c2cc(NC(=O)c3c(F)cccc3F)c(C(=O)O)s2)cc1 [KUC107784N-02]
% Inh. (panel of 68 receptors [1]): 2% | % Inh. (panel of 68 receptors [2]): 14% | % Inh. (panel of 68 receptors [3]): 3%

CCOc1ccc(-c2cc(NC(=O)c3c(F)cccc3F)c(C(=O)O)s2)cc1 [ML317, 3-(2,6-difluorobenzamido)-5-(4-ethoxyphenyl)thiophene-2-carboxylic acid]
CC50 at 72 h ([4]; commercial sample, SID 103147605): 47.2 ± 7.2 µM | IC50 at 72 h ([4]; first round of synthetic analogues, n = 3): 51.6 µM | IC50 at 72 h ([4]; purchased analogue series, n = 2): 47.2 µM | CC50 at 72 h ([4]; synthesized sample, SID 126497311): 51.6 ± 13.7 µM | Cytotoxicity CC50 / TC50 / IC50 [5]: 47.2 ± 7.2 µM and 51.6 µM | Cytotoxicity CC50 / TC50 / IC50 ([5]; listed as CID 23602075): 47.2 ± 7.2 µM | Plasma Stability, % remaining at 3 hr (Plasma stability, human): 95.3 % remaining | Plasma Stability, % remaining at 3 hr (Plasma stability, mouse): 78.4 % remaining | CC50 (in vitro): 26 µM | Capsular material, Alcian blue stained gel [6]: capsule was reduced in each strain
